Data published in publication PMC8826081, “Three-Carbon Linked Dihydroartemisinin-Isatin Hybrids: Design, Synthesis and Their Antiproliferative Anticancer Activity” (Frontiers in Pharmacology, 2022).

How the values were obtained:
[1] = test system: A549/DDP (cisplatin-resistant A549 cells); experiment: MTT antiproliferative activity against cisplatin-resistant A549; format: cell-based; settings: for IC50: MTT assay, cisplatin-resistant A549 cells
Text: (§1) 3-(4,5-dimethylthiazol-2-yl)-2,5-diphenyltetrazolium bromide (MTT) assay was used to determined the antiproliferative activity of dihydroartemisinin-isatin hybrids 5a-e and 6a-j with three-carbon linker against A549, multidrug-resistant A549/DOX and A549/DDP lung cancer cell lines as well as cytotoxicity towards normal lung epithelial cell line (BEAS-2B). The inhibitory effects were expressed in terms of half maximal inhibitory concentration (IC50) values.
(§2) A549, A549/DOX, and A549/DDP lung cancer cells (2×10^3) were plated in each well of a 96-well plate and were allowed to adhere and spread for 24 h. The […] were added to a final concentration of 100 µM, and the cells were cultured for 24 h at 37 °C. 3-(4,5-dimethyl-2-thiazolyl)-2,5-diphenyltetrazolium bromide (MTT) solution (10 µL) was added to each well, and the cultures were incubated for an additional 4 h. A further 100 µL of […] was added and incubation continued overnight. The absorbance at 540 nm was determined in each well with a 96-well plate reader. The growth of the treated cells was compared with that of untreated cells.

[2] = test system: A549 lung cancer cells; experiment: MTT antiproliferative activity against A549; format: cell-based; settings: MTT assay, drug-sensitive A549
Text: as §1, §2

[3] = test system: A549/DOX (doxorubicin-resistant A549 cells); experiment: MTT antiproliferative activity against doxorubicin-resistant A549; format: cell-based; settings: for IC50: MTT assay, doxorubicin-resistant A549 cells
Text: as §1, §2

[4] = in vitro; settings: human
Protocol: as §1
(§3) The compounds were dissolved in DMSO with concentrations from 1024 to 1 μg/mL. The NIH/3T3 cells were maintained in culture medium at 37 °C under 5% CO2 atmosphere. Cells were seeded in 96-well plates (1×10^4 cell per well) and allowed to recover for 24 h. After 72 h of exposure, cells were harvested and cell viability was assessed by MTT assay. The CC50 values were calculated by Bliss analysis.

[5] = test system: BEAS-2B normal lung epithelial cell line; experiment: MTT cytotoxicity towards normal lung epithelial cells; settings: IC50(BEAS-2B)/IC50(A549)
Protocol: as §1, §3

[6] = test system: A549, A549/DOX and A549/DDP lung cancer cell lines; experiment: MTT antiproliferative activity, summarised over the three lung cancer cell lines; format: cell-based; settings: MTT assay, span of values over the three lung cancer cell lines; read-out: IC50 (range over A549, A549/DOX and A549/DDP)
Text: as §1, §2

SMILES | IC50 ([1]; Homo sapiens) | IC50 ([2]; Homo sapiens) | IC50 ([3]; Homo sapiens) | IC50 [4] | RI2 (Resistance index: IC50(A549/DDP)/IC50(A549)) [1] | RI1 (Resistance index: IC50(A549/DOX)/IC50(A549)) [3] | IC50 [6] | SI (Selectivity index: IC50(BEAS-2B)/IC50(A549)) [5] | IC50 ([4]; BEAS-2B normal lung epithelial cells) | IC50 [1] | IC50 [2] | IC50 [3]
C[C@@H]1CC[C@H]2[C@@H](C)C(OCCCN3C(=O)C(=O)c4ccccc43)O[C@@H]3O[C@@]4(C)CC[C@@H]1[C@]32OO4 (stereo partly drawn) [5a, 1-(3-(((3R,5aS,6R,8aS,9R,12R,12aR)-3,6,9-trimethyldecahydro-12H-3,12-epoxy[1,2]dioxepino[4,3-i]isochromen-10-yl)oxy)propyl)indoline-2,3-dione] | > 100 µM | > 100 µM | > 100 µM | > 100 µM |  |  |  |  |  |  |  | 
C[C@@H]1CC[C@H]2[C@@H](C)C(OCCCN3C(=O)C(=O)c4cc(F)ccc43)O[C@@H]3O[C@@]4(C)CC[C@@H]1[C@]32OO4 (stereo partly drawn) [5b, 5-fluoro-1-(3-(((3R,5aS,6R,8aS,9R,12R,12aR)-3,6,9-trimethyldecahydro-12H-3,12-epoxy[1,2]dioxepino[4,3-i]isochromen-10-yl)oxy)propyl)indoline-2,3-dione] | > 100 µM | > 100 µM | > 100 µM | > 100 µM |  |  |  |  |  |  |  | 
C[C@@H]1CC[C@H]2[C@@H](C)C(OCCCN3C(=O)C(=O)c4cc(Cl)ccc43)O[C@@H]3O[C@@]4(C)CC[C@@H]1[C@]32OO4 (stereo partly drawn) [5c, 5-chloro-1-(3-(((3R,5aS,6R,8aS,9R,12R,12aR)-3,6,9-trimethyldecahydro-12H-3,12-epoxy[1,2]dioxepino[4,3-i]isochromen-10-yl)oxy)propyl)indoline-2,3-dione] | 79.8 µM | 53.6 µM | 49.7 µM | > 100 µM | 1.49 | 0.93 |  | >1.8 |  |  |  | 
Cc1ccc2c(c1)C(=O)C(=O)N2CCCOC1O[C@@H]2O[C@@]3(C)CC[C@H]4[C@H](C)CC[C@@H]([C@H]1C)[C@@]24OO3 (stereo partly drawn) [5d, 5-methyl-1-(3-(((3R,5aS,6R,8aS,9R,12R,12aR)-3,6,9-trimethyldecahydro-12H-3,12-epoxy[1,2]dioxepino[4,3-i]isochromen-10-yl)oxy)propyl)indoline-2,3-dione] | > 100 µM | > 100 µM | > 100 µM | > 100 µM |  |  |  |  |  |  |  | 
COc1ccc2c(c1)C(=O)C(=O)N2CCCOC1O[C@@H]2O[C@@]3(C)CC[C@H]4[C@H](C)CC[C@@H]([C@H]1C)[C@@]24OO3 (stereo partly drawn) [5e, 5-methoxy-1-(3-(((3R,5aS,6R,8aS,9R,12R,12aR)-3,6,9-trimethyldecahydro-12H-3,12-epoxy[1,2]dioxepino[4,3-i]isochromen-10-yl)oxy)propyl)indoline-2,3-dione] | > 100 µM | > 100 µM | > 100 µM | > 100 µM |  |  |  |  |  |  |  | 
C[C@@H]1CC[C@H]2[C@@H](C)C(=O)O[C@@H]3O[C@@]4(C)CC[C@@H]1[C@]32OO4 [Artemisinin] | > 100 µM | > 100 µM | > 100 µM |  |  |  | > 100 µM |  | > 100 µM |  |  | 
N.N.[Cl][Pt][Cl] [cisplatin, reference compound] |  |  |  |  |  |  | 9.38 to 66.9 µM |  |  | 66.9 µM | 9.38 µM | 19.7 µM
COc1cccc2c1C(=O)c1c(O)c3c(c(O)c1C2=O)C[C@@](O)(C(=O)CO)C[C@@H]3O[C@H]1C[C@H](N)[C@H](O)[C@H](C)O1 [doxorubicin, reference compound] | 15.1 µM | 4.06 µM | 54.3 µM | 93.8 µM |  |  | 4.06 to 54.3 µM |  |  |  |  | 

Further lines, with some results ahead:

IC50 ([1]; Homo sapiens) | IC50 ([2]; Homo sapiens) | IC50 ([3]; Homo sapiens) | IC50 [4] | RI2 (Resistance index: IC50(A549/DDP)/IC50(A549)) [1] | RI1 (Resistance index: IC50(A549/DOX)/IC50(A549)) [3] | IC50 [6] | SMILES | SI (Selectivity index: IC50(BEAS-2B)/IC50(A549)) [5] | IC50 ([4]; BEAS-2B normal lung epithelial cells) | IC50 [1] | IC50 [2] | IC50 [3]
> 100 µM | > 100 µM | > 100 µM | > 100 µM |  |  |  | C[C@@H]1CC[C@H]2[C@@H](C)C(OCCCN3C(=O)C(=NNC(N)=O)c4ccccc43)O[C@@H]3O[C@@]4(C)CC[C@@H]1[C@]32OO4 (stereo partly drawn) [6b, 2-(2-oxo-1-(3-(((3R,5aS,6R,8aS,9R,12R,12aR)-3,6,9-trimethyldecahydro-12H-3,12-epoxy[1,2]dioxepino[4,3-i]isochromen-10-yl)oxy)propyl)indolin-3-ylidene)hydrazine-1-carboxamide] |  |  |  |  | 
28.8 µM | 23.2 µM | 36.6 µM | > 100 µM | 1.24 | 1.57 |  | C[C@@H]1CC[C@H]2[C@@H](C)C(OCCCN3C(=O)C(=NNC(N)=S)c4ccccc43)O[C@@H]3O[C@@]4(C)CC[C@@H]1[C@]32OO4 (stereo partly drawn) [6c, 2-(2-oxo-1-(3-(((3R,5aS,6R,8aS,9R,12R,12aR)-3,6,9-trimethyldecahydro-12H-3,12-epoxy[1,2]dioxepino[4,3-i]isochromen-10-yl)oxy)propyl)indolin-3-ylidene)hydrazine-1-carbothioamide] | >4.3 |  |  |  | 
> 100 µM | > 100 µM | > 100 µM | > 100 µM |  |  |  | C[C@@H]1CC[C@H]2[C@@H](C)C(OCCCN3C(=O)C(=NNC(N)=O)c4cc(F)ccc43)O[C@@H]3O[C@@]4(C)CC[C@@H]1[C@]32OO4 (stereo partly drawn) [6d, 2-(5-fluoro-2-oxo-1-(3-(((3R,5aS,6R,8aS,9R,12R,12aR)-3,6,9-trimethyldecahydro-12H-3,12-epoxy[1,2]dioxepino[4,3-i]isochromen-10-yl)oxy)propyl)indolin-3-ylidene)hydrazine-1-carboxamide] |  |  |  |  | 
31.9 µM | 24.7 µM | 26.9 µM | > 100 µM | 1.29 | 1.08 |  | C[C@@H]1CC[C@H]2[C@@H](C)C(OCCCN3C(=O)C(=NO)c4cc(Cl)ccc43)O[C@@H]3O[C@@]4(C)CC[C@@H]1[C@]32OO4 (stereo partly drawn) [6f, 5-chloro-3-(hydroxyimino)-1-(3-(((3R,5aS,6R,8aS,9R,12R,12aR)-3,6,9-trimethyldecahydro-12H-3,12-epoxy[1,2]dioxepino[4,3-i]isochromen-10-yl)oxy)propyl)indolin-2-one] | >4.0 |  |  |  | 
49.7 µM | 55.5 µM | 29.9 µM | > 100 µM | 0.89 | 0.54 |  | Cc1ccc2c(c1)C(=NO)C(=O)N2CCCOC1O[C@@H]2O[C@@]3(C)CC[C@H]4[C@H](C)CC[C@@H]([C@H]1C)[C@@]24OO3 (stereo partly drawn) [6g, 3-(hydroxyimino)-5-methyl-1-(3-(((3R,5aS,6R,8aS,9R,12R,12aR)-3,6,9-trimethyldecahydro-12H-3,12-epoxy[1,2]dioxepino[4,3-i]isochromen-10-yl)oxy)propyl)indolin-2-one] | >1.8 |  |  |  | 
94.2 µM | 99.6 µM | 87.3 µM | > 100 µM | 0.95 | 0.88 |  | Cc1ccc2c(c1)C(=NNC(N)=S)C(=O)N2CCCOC1O[C@@H]2O[C@@]3(C)CC[C@H]4[C@H](C)CC[C@@H]([C@H]1C)[C@@]24OO3 (stereo partly drawn) [6h, 2-(5-methyl-2-oxo-1-(3-(((3R,5aS,6R,8aS,9R,12R,12aR)-3,6,9-trimethyldecahydro-12H-3,12-epoxy[1,2]dioxepino[4,3-i]isochromen-10-yl)oxy)propyl)indolin-3-ylidene)hydrazine-1-carbothioamide] | >1.0 |  |  |  | 
